Results taken from ChEMBL document CHEMBL3886663, “COMPOUNDS AND USES” (2016).

Target: T1, Leukotriene C4 synthase (Homo sapiens, UniProt Q16873)
T1 sequence (Q16873 whole entry): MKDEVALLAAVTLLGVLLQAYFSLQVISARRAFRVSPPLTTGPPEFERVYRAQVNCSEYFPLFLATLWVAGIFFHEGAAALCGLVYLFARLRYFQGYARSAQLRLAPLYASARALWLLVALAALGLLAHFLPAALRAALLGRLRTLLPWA
Test: Recombinant human LTC4 synthase is expressed in […] and the purified enzyme is dissolved in 25 mM tris-buffer pH 7.8 supplemented with 0.1 mM glutathione (GSH) and stored at −80 °C. […] The buffer is used as background. Runs are performed in duplicates. […] The reaction is stopped after 1 min by addition of double the reaction volume of a stop solution (MeOH:H2O:acetic acid 70:30:1).

Row | SMILES | IC50 [nM]
1 | COc1cc(N(Cc2cccc3ccccc23)CC2CC2)cnc1C(=O)C1CC1C(=O)O (stereo not given) | 66
2 | COc1cc(N(Cc2ccc(C)cc2)CC2CC2)cnc1C(=O)C1CC1C(=O)O (stereo not given) | 22
3 | COc1cc(N(Cc2ccc(C(F)(F)F)cc2F)CC2CC2)cnc1C(=O)C1CC1C(=O)O (stereo not given) | 53
4 | COc1cc(N(CC2CC2)c2ccc(C)c3ccccc23)ncc1C(=O)C1CC1C(=O)O (stereo not given) | 56

Continued by falling IC50, values first:

Row | IC50 [nM] | SMILES
5 | 2180 | COc1cc(N(Cc2ccc(-c3ccccc3)cc2)CC2CC2)cnc1C(=O)C1CC1C(=O)O (stereo not given)
6 | 800 | COc1cc(N(Cc2c(Cl)cccc2Cl)CC2CC2)cnc1C(=O)C1CC1C(=O)O (stereo not given)
7 | 588 | COc1cc(N(Cc2cc(Cl)cc3c2OCO3)CC2CC2)cnc1C(=O)C1CC1C(=O)O (stereo not given)
8 | 478 | COc1cc(N(Cc2cc(F)cc3c2OCOC3)CC2CC2)cnc1C(=O)C1CC1C(=O)O (stereo not given)
9 | 445 | COc1cc(N(CC2CC2)c2cccc3c(C)ccnc23)cnc1C(=O)C1CC1C(=O)O (stereo not given)
10 | 171 | COc1cc(N(Cc2cccc(C)c2)CC2CC2)cnc1C(=O)C1CC1C(=O)O (stereo not given)
